Earlier results as cited in patent US20190316065A1, “NATURALLY-DERIVED ANTIMICROBIAL CLEANING SOLUTIONS” (ProNatural Brands LLC, priority 2018, published 2019).

Details: standard pKa

pKa1: 3.1
pKa2: 4.8
pKa3: ≈ 6.4
Structure (SMILES): O=C(O)CC(O)(CC(=O)O)C(=O)O [citric acid]
